The text below walks through data of ChEMBL document CHEMBL1129406, “Sustained decrease in cocaine-maintained responding in rhesus monkeys with 1-[2-[bis(4-fluorophenyl)methoxy]ethyl]-4-(3-hydroxy-3-phenylpropyl) piperazinyl decanoate, a long-acting ester derivative of GBR 12909” (1996).

Format in all cases: functional, Cercopithecidae
In assay [1] the test system is Monkey. As to the kind of experiment: Effect of compound on rate of response maintained by food (3.696 resp/s, +/-9.99%) in monkeys at a dose of 3 mL.
In assay [2] the test system is Monkey. Put plainly: Effect of compound on rate of response maintained by cocaine (4.026 resp/s,+/-13.6%) in monkeys at a dose of 3 mL.
Assay [3] deals with Monkey. As to the kind of experiment: Effect of compound on rate of response maintained by food (3.696 resp/s, +/-9.99%) in monkeys.
Assay [4] concerns Monkey. Put plainly: Effect of compound on rate of response maintained by cocaine (4.026 resp/s,+/-13.6%) in monkeys.
The subject of assay [5] is Monkey. Put plainly: Effect of compound on rate of response maintained by cocaine (4.026 resp/s,+/-13.6%) in monkeys at a dose of 6 mL.

Take `CCCCCCCCCC(=O)OC(CCN1CCN(CCOC(c2ccc(F)cc2)c2ccc(F)cc2)CC1)c1ccccc1` (stereo not given): the Control in the assay on Monkey [1] was 82%; with Monkey [2], 74%; with Monkey [3] it was 97%; with Monkey [4] it was 76.2%; in the assay on Monkey [5] it was 25.3%.
